Measurements reported in US11111251B2, “Positive allosteric modulators of the muscarinic acetylcholine receptor M1” (Vanderbilt University, priority 2016, dated 2021).

Biological target: T1, human mAChR M1 (Homo sapiens, UniProt P11229)
T1 sequence (P11229 1-460): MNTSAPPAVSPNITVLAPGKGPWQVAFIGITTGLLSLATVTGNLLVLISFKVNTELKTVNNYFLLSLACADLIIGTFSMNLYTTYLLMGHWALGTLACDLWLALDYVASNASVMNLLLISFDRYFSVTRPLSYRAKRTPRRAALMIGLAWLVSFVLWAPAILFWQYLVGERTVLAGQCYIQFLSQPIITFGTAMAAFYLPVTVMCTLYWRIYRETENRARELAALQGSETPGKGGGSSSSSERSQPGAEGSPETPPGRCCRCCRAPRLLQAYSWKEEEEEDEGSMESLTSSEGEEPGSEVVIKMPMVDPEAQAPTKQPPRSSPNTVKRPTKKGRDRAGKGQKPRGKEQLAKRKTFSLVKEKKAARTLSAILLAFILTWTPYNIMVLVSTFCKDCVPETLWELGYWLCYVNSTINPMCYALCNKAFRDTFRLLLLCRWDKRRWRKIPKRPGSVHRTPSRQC
Experiment: mAChR M1 cell-based functional assay: calcium mobilization, positive allosteric modulator mode (increase in EC20 acetylcholine response)
Settings: Table 2, human M1; for EC50: read-out: Human M1 EC50; for Emax: read-out: Human M1 Emax (%)
Summary of the method: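 PAM potency reflects the concentration-dependent increase in calcium response to an EC20 acetylcholine challenge, given 144 s into a 300 s read after compound addition at 4 s (EC80 follows at 230 s). Cells were hM1-expressing CHO-K1, loaded 50 min with Fluo-4 AM. Curves used 11 points at 1:3 dilutions and four-parameter logistic fitting.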

EC50 [µM] | Emax [%] | Structure (SMILES)
2.46 | 64.4 | Cc1csc2c(Cc3ccc(-n4cccn4)cc3)cc(C(=O)NC3CCN(C)CC3)nc12 [Compound 124, 3-methyl-N-(1-methyl-4-piperidyl)-7-[(4-pyrazol-1-ylphenyl)methyl]thieno[3,2-b]pyridine-5-carboxamide]
> 10 | 59.1 | Cc1ncc(Cc2cc(C(=O)N[C@@H]3CCC[C@H]3O)nc3ccsc23)cn1 [Compound 125]
> 10 | 27.4 | Cc1ncc(Cc2cc(C(=O)NC3CCOCC3)nc3ccsc23)cn1 [Compound 126, 7-[(2-methylpyrimidin-5-yl)methyl]-N-tetrahydropyran-4-yl-thieno[3,2-b]pyridine-5-carboxamide]
> 10 | 75 | Cc1ncc(Cc2cc(C(=O)N[C@@H]3CCOC[C@H]3O)nc3ccsc23)cn1 [Compound 128, N-[(3S,4R)-3-hydroxytetrahydropyran-4-yl]-7-[(2-methylpyrimidin-5-yl)methyl]thieno[3,2-b]pyridine-5-carboxamide]
> 10 | 20.1 | CO[C@@H]1CCCC[C@H]1NC(=O)c1cc(Cc2cnc(C)nc2)c2sccc2n1 [Compound 130, N-[(1R,2R)-2-methoxycyclohexyl]-7-[(2-methylpyrimidin-5-yl)methyl]thieno[3,2-b]pyridine-5-carboxamide]
3.21 | 37.6 | Cc1ncc(Cc2cc(C(=O)NC3CCCCC3)nc3ccsc23)s1 [Compound 134, N-cyclohexyl-7-[(2-methylthiazol-5-yl)methyl]thieno[3,2-b]pyridine-5-carboxamide]
0.306 | 82.8 | Cc1ncc(Cc2cc(C(=O)N[C@@H]3CCCCC[C@H]3O)nc3ccsc23)s1 [Compound 140, N-[(1R,2R)-2-hydroxycycloheptyl]-7-[(2-methylthiazol-5-yl)methyl]thieno[3,2-b]pyridine-5-carboxamide]
> 10 | 50.5 | Cc1ncc(Cc2cc(C(=O)NC3CCCNC3=O)nc3ccsc23)s1 (centres unmarked) [Compound 143, 7-[(2-methylthiazol-5-yl)methyl]-N-(2-oxo-3-piperidyl)thieno[3,2-b]pyridine-5-carboxamide]
> 10 | 50.7 | Cc1ncc(Cc2cc(C(=O)NC3CCCCNC3=O)nc3ccsc23)s1 (centres unmarked) [Compound 144, 7-[(2-methylthiazol-5-yl)methyl]-N-(2-oxoazepan-3-yl)thieno[3,2-b]pyridine-5-carboxamide]
> 10 | 41.6 | Cc1ccc(C(=O)c2cc(C(=O)N[C@@H]3CCCC[C@H]3O)nc3ccsc23)cn1 [Compound 145, N-[(1R,2R)-2-hydroxycyclohexyl]-7-(6-methylpyridine-3-carbonyl)thieno[3,2-b]pyridine-5-carboxamide]
0.00474 | 59.8 | Cn1cc(-c2ccc(Cc3cc(C(=O)N[C@@H]4CCOC[C@H]4O)nc4ccsc34)cc2)nn1 [Compound 153, N-[(3S,4R)-3-hydroxytetrahydropyran-4-yl]-7-[[4-(1-methyltriazol-4-yl)phenyl]methyl]thieno[3,2-b]pyridine-5-carboxamide]

The remaining lines, values behind:

Structure (SMILES) | EC50 [µM] | Emax [%]
Cc1ncc(Cc2cc(C(=O)N[C@@H]3CCCC[C@H]3O)nc3ccsc23)cn1 [Compound 127, N-[(1R,2R)-2-hydroxycyclohexyl]-7-[(2-methylpyrimidin-5-yl)methyl]thieno[3,2-b]pyridine-5-carboxamide] | > 10 | 79.2
Cc1ncc(Cc2cc(C(=O)N[C@@H]3COCC[C@H]3O)nc3ccsc23)cn1 [Compound 129, N-[(3R,4R)-4-hydroxytetrahydropyran-3-yl]-7-[(2-methylpyrimidin-5-yl)methyl]thieno[3,2-b]pyridine-5-carboxamide] | > 10 | 51.5
Cc1ncc(Cc2cc(C(=O)N[C@@H]3CCCCC[C@H]3O)nc3ccsc23)cn1 [Compound 131, N-[(1R,2R)-2-hydroxycycloheptyl]-7-[(2-methylpyrimidin-5-yl)methyl]thieno[3,2-b]pyridine-5-carboxamide] | 4.65 | 83.4
Cc1ncc(Cc2cc(C(=O)N[C@H]3CC[C@@H]3O)nc3ccsc23)s1 [Compound 132, N-[(1S,2S)-2-hydroxycyclobutyl]-7-[(2-methylthiazol-5-yl)methyl]thieno[3,2-b]pyridine-5-carboxamide] | > 10 | 54.9
Cc1ncc(Cc2cc(C(=O)N[C@@H]3CCC[C@H]3O)nc3ccsc23)s1 [Compound 133, N-[(1R,2R)-2-hydroxycyclopentyl]-7-[(2-methylthiazol-5-yl)methyl]thieno[3,2-b]pyridine-5-carboxamide] | 3.62 | 77.9
Cc1ncc(Cc2cc(C(=O)NC3CCOCC3)nc3ccsc23)s1 [Compound 135, 7-[(2-methylthiazol-5-yl)methyl]-N-tetrahydropyran-4-yl-thieno[3,2-b]pyridine-5-carboxamide] | > 10 | 60.9
Cc1ncc(Cc2cc(C(=O)N[C@@H]3CCCC[C@H]3O)nc3ccsc23)s1 [Compound 136, N-[(1R,2R)-2-hydroxycyclohexyl]-7-[(2-methylthiazol-5-yl)methyl]thieno[3,2-b]pyridine-5-carboxamide] | 0.359 | 81
Cc1ncc(Cc2cc(C(=O)N[C@@H]3CCOC[C@H]3O)nc3ccsc23)s1 [Compound 137, N-[(3S,4R)-3-hydroxytetrahydropyran-4-yl]-7-[(2-methylthiazol-5-yl)methyl]thieno[3,2-b]pyridine-5-carboxamide] | 0.548 | 80.3
Cc1ncc(Cc2cc(C(=O)N[C@@H]3COCC[C@H]3O)nc3ccsc23)s1 [Compound 138, N-[(3R,4R)-4-hydroxytetrahydropyran-3-yl]-7-[(2-methylthiazol-5-yl)methyl]thieno[3,2-b]pyridine-5-carboxamide] | > 10 | 74.3
CO[C@@H]1CCCC[C@H]1NC(=O)c1cc(Cc2cnc(C)s2)c2sccc2n1 [Compound 139, N-[(1R,2R)-2-methoxycyclohexyl]-7-[(2-methylthiazol-5-yl)methyl]thieno[3,2-b]pyridine-5-carboxamide] | > 10 | 51.1
Cc1ncc(Cc2cc(C(=O)NC34CC5CC(CC(O)(C5)C3)C4)nc3ccsc23)s1 [Compound 141, N-(3-hydroxy-1-adamantyl)-7-[(2-methylthiazol-5-yl]methyl]thieno[3,2-b]pyridine-5-carboxamide] | > 10 | 36.9
Cc1ncc(Cc2cc(C(=O)NC3C4CC5CC3CC(O)(C5)C4)nc3ccsc23)s1 [Compound 142, N-(1S)-5-hydroxy-2-adamantyl]-7-[(2-methylthiazol-5-yl)methyl]thieno[3,2-b]pyridine-5-carboxamide] | 4.95 | 23.9
Cc1nc(-c2ccc(Cc3cc(C(=O)N[C@H]4CC[C@@H]4O)nc4ccsc34)cc2)co1 [Compound 146, N-[(1S,2S)-2-hydroxycyclobutyl]-7-[[4-(2-methyloxazol-4-yl)phenyl]methyl]thieno[3,2-b]pyridine-5-carboxamide] | 0.336 | 90.7
Cc1nc(-c2ccc(Cc3cc(C(=O)NC4COC4)nc4ccsc34)cc2)co1 [Compound 147, 7-[[4-(2-methyloxazol-4-yl)phenyl]methyl]-N-(oxetan-3-yl)thieno[3,2-b]pyridine-5-carboxamide] | > 10 | 34
Cn1cc(-c2ccc(Cc3cc(C(=O)N[C@H]4CC[C@@H]4O)nc4ccsc34)cc2)nn1 [Compound 148, N-[(1S,2S)-2-hydroxycyclobutyl]-7-[[4-(1-methyltriazol-4-yl)phenyl]methyl]thieno[3,2-b]pyridine-5-carboxamide] | 0.0331 | 85.5
Cn1cc(-c2ccc(Cc3cc(C(=O)N[C@@H]4CCC[C@H]4O)nc4ccsc34)cc2)nn1 [Compound 149, N-[(1R,2R)-2-hydroxycyclopentyl]-7-[[4-(1-methyltriazol-4-yl)phenyl]methyl]thieno[3,2-b]pyridine-5-carboxamide] | 0.00984 | 85
Cn1cc(-c2ccc(Cc3cc(C(=O)N[C@@H]4CCOC4)nc4ccsc34)cc2)nn1 [Compound 150, 7-[[4-(1-methyltriazol-4-yl)phenyl]methyl]-N-[(3R)-tetrahydrofuran-3-yl]thieno[3,2-b]pyridine-5-carboxamide] | 0.722 | 88.5
Cn1cc(-c2ccc(Cc3cc(C(=O)N[C@H]4CCOC4)nc4ccsc34)cc2)nn1 [Compound 151, 7-[[4-(1-methyltriazol-4-yl)phenyl]methyl]-N-[(3S)-tetrahydrofuran-3-yl]thieno[3,2-b]pyridine-5-carboxamide] | 0.595 | 88.4
Cn1cc(-c2ccc(Cc3cc(C(=O)NC4CCCOC4)nc4ccsc34)cc2)nn1 (centres unmarked) [Compound 152, 7-[[4-(1-methyltriazol-4-yl)phenyl]methyl]-N-tetrahydropyran-3-yl-thieno[3,2-b]pyridine-5-carboxamide] | 0.272 | 92.3
Cn1cc(-c2ccc(Cc3cc(C(=O)N[C@@H]4COCC[C@H]4O)nc4ccsc34)cc2)nn1 [Compound 154, N-[(3R,4R)-4-hydroxytetrahydropyran-3-yl]-7-[[4-(1-methyltriazol-4-yl)phenyl]methyl]thieno[3,2-b]pyridine-5-carboxamide] | 0.0062 | 83.9
